Laboratory results taken from patent publication US20240076620A1, “PRODUCTION OF SKELETAL MUSCLE CELLS AND SKELETAL MUSCLE TISSUE FROM PLURIPOTENT STEM CELLS” (Georg-August-Universität Göttingen Stiftung Öffentlichen …, priority 2019, published 2024).

How the values were obtained:
Type in all cases: cell-based, human
[1] = test system: engineered skeletal muscle tissue (ESM); test: Isometric force measurements of engineered skeletal muscle (ESM) matured with medium additives; conditions: for contraction speed (+dFOC/dt): 100 Hz stimulation; for contraction speed (+dFOC/dt) / relaxation speed (−dFOC/dt): vs without added T3; for relaxation speed (−dFOC/dt): after 100 Hz stimulation; for increase of the force of contraction: 100 Hz, vs no creatine
Text: To further increase the function of engineered skeletal muscle, e.g. the contraction force can be increased by adding specific molecules. In this example, we specifically tested the enhancement of the contraction force, as well as contraction and relaxation times, in response to the addition of creatine and an increased concentration of thyroid hormone T3 (triiodo-L-thyronine (T3); from 3 to 100 nmol/L in the maturation medium in step iv). Here, the procedure according to Examples 1 and 2 was performed first. In contrast to Example 2, the maturation medium was supplemented with creatine or an increased concentration of T3 either between days 28 and 56 or between days 56 and 84 of the method.
The maturation medium was changed every other day and cultured under mechanical stretching for up to 9 weeks. The maturation medium comprised DMEM, with low glucose, GlutaMAX™ Supplement, pyruvate (Thermo Fisher Scientific), 1% N-2 Supplement (Thermo Fisher Scientific), 2% B-27 Supplement (Thermo Fisher Scientific), and optional antibiotics (e.g., 1% Pen/Strep-Thermo Fisher Scientific). 0.1 μM T3 (Sigma-Aldrich) or 1 mM creatine monohydrate (Sigma-Aldrich) were added to the maturation medium for a four-week period when indicated (e.g., day 28-56 or day 56-84).
The contractile function of engineered skeletal muscle tissue was measured under isometric conditions in an organ bath filled with gassed (5% CO2/95% 02) Tyrode solution (containing in mmol/L): 120 NaCl, 1 MgCl2, 0.2 CaCl2), 5.4 KCl, 22.6 NaHCO3, […], 5.6 glucose, and 0.56 ascorbate) at 37° C. To verify the force-length relationship—while ESMs were electrically stimulated at 1 Hz with 5 ms rectangular pulses of 200 mA—muscle length was increased by mechanical stretching in intervals of 125 μm, until the maximum contraction force was observed. At the length of maximum force generation, tetanic contraction force was assessed under defined stimulation frequencies (4-second stimulation at 10, 20, 40, 60, 80, and 100 Hz).

[2] = test system: MYH2 (fast myosin heavy chain); test: Western blot of myosin heavy chain protein in ESM; conditions: four-week addition of 0.1 μM T3; day 84; three independent experiments
Experimental: (§1) To investigate the molecular cause of this improved muscle function, the expression of different proteins was analyzed by Western blots. MYH2 is the heavy chain of the fast myosin (MYH2; fast myosin heavy chain); MYH7 is the heavy chain of the slow myosin (MYH7; slow myosin heavy chain); MYH3 is the heavy chain of the embryonic myosin (MYH3; embryonic myosin heavy chain). Protein expression was analyzed at day 84. […] Based on three independent experiments, the expression is increased at least 5-fold. The expression of MYH7 remained unchanged by an addition of 0.1 μM T3. […] These protein expression data support the functional data from FIGS. 10B, as the reduced response time of the engineered skeletal muscle can be explained by an increased expression of the fast myosin (MYH2) isoform by T3.
(§2) For protein isolation, engineered skeletal muscle was placed in an Eppendorf tube and snap frozen in liquid nitrogen. To the engineered skeletal muscle, 150 μl of ice-cold protein lysate buffer (2.38 g HEPES, 10.20 g NaCl, 100 ml glycerol, 102 mg MgCl2, 93 mg EDTA, 19 mg EGTA, 5 ml NP-40 in a total volume of 500 ml ddH2O) containing 1/10 phosphatase inhibitor (Roche) and 1/7 protease inhibitor (Roche) were added. A 7-mm stainless steel ball (Qiagen) was added to the Eppendorf tube, and the sample was homogenized using the TissueLyser II (Qiagen) for 30 seconds at 30 Hz and 4° C., followed by incubation on ice for 2 hours and then centrifugation at 12,000 rpm and 4° C. for 30 minutes. The supernatant was collected as a protein sample, and the protein concentration was measured by Bradford protein assay. […] Protein expression in ESM was analyzed by Western blot using the following primary antibodies: monoclonal embryonic myosin heavy chain 3 (1:500, F1.652, DSHB), slow myosin type heavy chain 7 (1:500, A4.951, DSHB), and fast myosin type heavy chain 2 (1:100, A4.74, DSHB). […] Protein quantification from the Western blot was performed using ImageJ.

[3] = test system: MYH3 (embryonic myosin heavy chain); test: Western blot of myosin heavy chain protein in ESM; conditions: addition of 0.1 μM T3; day 84; on average
Experimental: as §1, §2

[4] = test system: MYH7 (slow myosin heavy chain); test: Western blot of myosin heavy chain protein in ESM; conditions: addition of 0.1 μM T3; day 84
Experimental: as §1, §2

[5] = 0.1 μM T3 between days 56 and 84

Compound	contraction speed (+dFOC/dt) [1, 5]	relaxation speed (−dFOC/dt) [1, 5]	contraction speed (+dFOC/dt) ([1]; 0.1 μM T3 day 28 to day 56)	relaxation speed (−dFOC/dt) ([1]; 0.1 μM T3 day 28 to day 56)	protein expression of MYH2, increase [2]	MYH3 expression [3]	expression of MYH7 [4]	increase of the force of contraction ([1]; 1 mM creatine day 28 to day 56) [%]	increase of the force of contraction ([1]; 1 mM creatine day 56 to day 84) [%]	force of contraction (FOC) ([1]; maturation medium with 1 mM creatine day 28 to day 56, tetanic contraction at 100 Hz stimulation, without creatine 1.8 mN) [mN]	force of contraction (twitch tension) ([1]; maturation medium with 1 mM creatine day 56 to day 84, tetanic contraction at 100 Hz stimulation, without creatine 4.0 mN) [mN]
N[C@@H](Cc1cc(I)c(Oc2ccc(O)c(I)c2)c(I)c1)C(=O)O [T3, triiodo-L-thyronine]	decreased	decreased	decreased significantly	decreased significantly	at least 5 fold	reduced by approximately half	unchanged	–	–	–	–
CN(CC(=O)O)C(=N)N [creatine]	–	–	–	–	–	–	–	39	30	2.5	5.2
